In patent US11161819B2, “Substituted tetrahydroisoquinoline compounds useful as GPR120 agonists” (Merck Sharp & Dohme Corp., priority 2016, dated 2021):

Biological target: T1, human GPR120 (Homo sapiens, UniProt Q5NUL3)
T1 construct: expressed in transfected cells
T1 sequence (Q5NUL3 1-361): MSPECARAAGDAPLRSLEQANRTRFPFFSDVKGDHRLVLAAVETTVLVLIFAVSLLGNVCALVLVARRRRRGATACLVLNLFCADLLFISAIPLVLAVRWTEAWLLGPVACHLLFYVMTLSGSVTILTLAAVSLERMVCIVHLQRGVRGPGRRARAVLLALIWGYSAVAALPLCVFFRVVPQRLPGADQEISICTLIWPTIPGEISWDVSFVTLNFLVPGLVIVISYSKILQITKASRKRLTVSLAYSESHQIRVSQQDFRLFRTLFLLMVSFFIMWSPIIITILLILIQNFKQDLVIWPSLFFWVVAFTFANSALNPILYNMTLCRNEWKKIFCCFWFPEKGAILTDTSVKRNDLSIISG
Test: Human GPR120 IP1 Assay (inositol phosphate turnover, CisBio IP-One kit)
Type: cell-based
Settings: IP1 accumulation in CHO-K1 cells stably expressing the short form of human GPR120; 60 min compound incubation; 4-parameter fit; read-out: hGPR120 EC50
In short: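 CHO-K1 cells stably expressing short-form human GPR120 were stimulated with compounds for 60 minutes at 37 degrees in stimulation buffer. IP1 accumulation measured by HTRF competitive immunoassay (665/620 nm ratio) against an IP1 standard curve, normalized to a reference compound; EC50 from 4-parameter fit.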

Row | SMILES | EC50
1 | COc1ccc(-n2nc(C)c(C#N)c2N2CCc3ccccc3C2)cc1 [Example 141, 5-(3,4-dihydroisoquinolin-2(1H)-yl)-1-(4-methoxyphenyl)-3-methyl-1H-pyrazole-4-carbonitrile] | 288 nM
2 | COc1cc(O[C@H]2C[C@H](OC)C2)cc(N2CCc3cc([C@H]4C[C@@H]4C(=O)O)ccc3C2)c1C#N [Example 97, (1S,2S)-2-(2-{2-cyano-3-methoxy-5-[(trans-3-methoxycyclobutyl)oxy]phenyl}-1,2,3,4-tetrahydroisoquinolin-6-yl) cyclopropanecarboxylic acid] | 1580 nM
3 | O=C(O)CCc1ccc2c(c1)CCN(c1cc(OC3CCC3)cc(F)c1Cl)C2 [Example 45, 3-{2-[2-chloro-5-(cyclobutyloxy)-3-fluorophenyl]-1,2,3,4-tetrahydro-isoquinolin-6-yl}propanoic acid] | 2290 nM
4 | CO[C@H]1C[C@H](Oc2cc(F)c(F)c(N3CCc4cc(CCc5nnn[nH]5)ccc4C3)c2)C1 [Example 132, 6-(2-(1H-tetrazol-5-yl)ethyl)-2-(2,3-difluoro-5-((1r,3r)-3-methoxylcyclobutoxy)-phenyl)-1,2,3,4-tetrahydroisoquinoline] | 406 nM
5 | O=C(O)CCc1cc2c(cc1F)CN(c1cc(OC3CCC3)cc(F)c1F)CC2 [Example 131, 3-(2-(5-cyclobutoxy-2,3-difluorophenyl)-7-fluoro-1,2,3,4-tetrahydro-isoquinolin-6-yl)propanoic acid] | 174 nM
6 | C[C@H]1C[C@H](Oc2cc(F)c(F)c(N3CCc4c(ccc([C@H]5C[C@@H]5C(=O)O)c4F)C3)c2)C1 [Example 108, (1S,2S)-2-(2-(2,3-difluoro-5-((1r,3S)-3-methylcyclobutoxy)phenyl)-5-fluoro-1,2,3,4-tetra-hydroisoquinolin-6-yl)cyclopropanecarboxylic acid] | 122 nM
7 | O=C(O)CCc1ccc2c(c1)CCN(c1cncc(OC3CCC3)n1)C2 [Example 41, 3-{2-[6-(cyclobutyloxy)pyrazin-2-yl]-1,2,3,4-tetrahydroiso-quinolin-6-yl}propanoic acid] | 569 nM
8 | CC1c2ccc(CCC(=O)O)cc2CCN1c1cc(OC2CCC2)cc(F)c1F (centres unmarked) [Example 49, 3-{2-[5-(cyclobutyloxy)-2,3-difluorophenyl]-1-methyl-1,2,3,4-tetrahydroisoquinolin-6-yl}-propanoic acid] | 223 nM
9 | CC1c2ccc(CCC(=O)O)cc2CCN1c1cc(OC2CCC2)cc(F)c1Cl (centres unmarked) [Example 37, 3-{2-[2-chloro-5-(cyclobutyloxy)-3-fluorophenyl]-1-methyl-1,2,3,4-tetrahydroisoquinolin-6-yl}-propanoic acid] | 377 nM
10 | Cc1nc(OC2CCC2)cc(N2CCc3c(ccc(CCC(=O)O)c3F)C2)c1C#N [Example 149, 3-(2-(3-cyano-6-cyclobutoxy-2-methylpyridin-4-yl)-5-fluoro-1,2,3,4-tetrahydroisoquinolin-6-yl)propanoic acid] | 33 nM
11 | CO[C@H]1C[C@H](Oc2cc(F)c(F)c(N3CCc4cc([C@H]5C[C@@H]5C(=O)O)ccc4C3)c2)C1 [Example 100, (1S,2S)-2-(2-{2,3-difluoro-5-[(trans-3-methoxycyclobutyl)oxy]phenyl}-1,2,3,4-tetrahydroiso-quinolin-6-yl)-cyclopropanecarboxylic acid] | 251 nM
12 | O=C(O)CCc1ccc2c(c1F)CCN(c1cc(OC(F)(F)F)ccc1F)C2 [Example 80, 3-{5-fluoro-2-[2-fluoro-5-(trifluoromethoxy)phenyl]-1,2,3,4-tetrahydro-isoquinolin-6-yl}propanoic acid] | 3120 nM
13 | Cc1ccc(-n2nc(C)c(F)c2N2CCc3cc(C4CC4C(=O)O)ccc3C2)cc1 (centres unmarked) [Example 94, 2-{2-[4-fluoro-3-methyl-1-(4-methylphenyl)-1H-pyrazol-5-yl]-1,2,3,4-tetrahydroisoquinolin-6-yl}cyclo-propanecarboxylic acid] | 473 nM
14 | O=C(O)[C@H]1C[C@@H]1c1ccc2c(c1)CCN(Cc1cc(OC(F)(F)F)ccc1F)C2 [Example 90, (1S,2S)-2-{2-[2-fluoro-5-(trifluoro-methoxy)benzyl]-1,2,3,4-tetra hydroisoquinolin-6-yl}cyclo-propane carboxylic acid] | 250 nM
15 | N#Cc1ccc(OC2CCC2)cc1N1CCc2c(ccc(CCC(=O)O)c2F)C1 [Example 76, 3-{2-[2-cyano-5-(cyclobutyloxy)-phenyl]-5-fluoro-1,2,3,4-tetrahydro-isoquinolin-6-yl}propanoic acid] | 845 nM

More lines, in order of falling EC50, values ahead:

Row | EC50 | SMILES
16 | 171 nM | O=C(O)CCc1ccc2c(c1)CCN(c1cc3c(C(F)(F)F)noc3cc1F)C2 [Example 29, 3-{2-[6-fluoro-3-(trifluoromethyl)-1,2-benzisoxazol-5-yl]-1,2,3,4-tetrahydroisoquinolin-6-yl}-propanoic acid]
17 | 141 nM | Cc1cc(-c2cscn2)nc(N2CCc3c(ccc(CCC(=O)O)c3F)C2)c1C#N [Example 147, 3-[2-(3-Cyano-4-methyl-6-thiazol-4-yl-pyridin-2-yl)-5-fluoro-1,2,3,4-tetrahydro-isoquinolin-6-yl]-propionic acid]
18 | 134 nM | O=C(O)CCc1cc2c(cc1F)CN(c1cc(OC(F)(F)F)ccc1F)CC2 [Example 30, 3-{7-fluoro-2-[2-fluoro-5-(trifluoromethoxy)phenyl]-1,2,3,4-tetrahydroisoquinolin-6-yl}-propanoic acid]
19 | 107 nM | N#Cc1cc(OC(F)(F)F)cc(N2CCc3c(ccc([C@H]4C[C@@H]4C(=O)O)c3F)C2)c1F [Example 116, (1S,2S)-2-{2-[3-cyano-2-fluoro-5-(trifluoromethoxy)phenyl]-5-fluoro-1,2,3,4-tetrahydroiso-quinolin-6-yl}cyclopropane-carboxylic acid]
20 | 93 nM | Cc1ccc(-n2nc(C)c(Cl)c2N2CCc3cc(CCCCC(=O)O)ccc3C2)cc1 [Example 137, 5-{2-[4-chloro-3-methyl-1-(4-methylphenyl)-1H-pyrazol-5-yl]-1,2,3,4-tetrahydroisoquinolin-6-yl} pentanoic acid]
21 | 91 nM | Cc1ccc(-n2nc(C)c(F)c2N2CCc3cc(CCC(=O)O)ccc3C2)cc1 [Example 47, 3-{2-[4-fluoro-3-methyl-1-(4-methylphenyl)-1H-pyrazol-5-yl]-1,2,3,4-tetrahydroisoquinolin-6-yl} propanoic acid]
22 | 87 nM | N#Cc1c(F)cc(OC2CCC2)cc1N1CCc2c(ccc(CCC(=O)O)c2Cl)C1 [Example 153, 3-{5-chloro-2-[2-cyano-5-(cyclobutyloxy)-3-fluorophenyl]-1,2,3,4-tetrahydroisoquinolin-6-yl}-propanoic acid]
23 | 87 nM | Cc1ccc(-n2nc(C)c(C#N)c2N2CCc3cc(OCCO)ccc3C2)cc1 [Example 130, 5-(6-(2-hydroxyethoxy)-3,4-dihydroisoquinolin-2(1H)-yl)-3-methyl-1-(p-tolyl)-1H-pyrazole-4-carbonitrile]
24 | 61 nM | O=C(O)CCc1ccc2c(c1)CCN(c1cc(OC(F)(F)F)ccc1F)C2 [Example 27, 3-{2-[2-fluoro-5-(trifluoro-methoxy)phenyl]-1,2,3,4-tetrahydro-isoquinolin-6-yl}propanoic acid]
25 | 42 nM | CO[C@H]1C[C@H](Oc2cc(F)c(F)c(N3CCc4c(ccc([C@@H]5C[C@H]5C(=O)O)c4F)C3)c2)C1 [Example 110, (1R,2R)-2-(2-{2,3-difluoro-5-[(trans-3-methoxycyclobutyl)oxy]phenyl}-5-fluoro-1,2,3,4-tetrahydroisoquinolin-6-yl)-cyclopropanecarboxylic acid]
26 | 41 nM | Cc1ccc(-n2nc(C)c(C#N)c2N2CCc3cc(CCCCC(=O)O)ccc3C2)cc1 [Example 134, 5-{2-[4-cyano-3-methyl-1-(4-methyl-phenyl)-1H-pyrazol-5-yl]-1,2,3,4-tetrahydroisoquinolin-6-yl}pentanoic acid]
27 | 40 nM | O=C(O)[C@@H]1C[C@H]1c1ccc2c(c1)CCN(c1cc(OC3CCC3)cc(F)c1F)C2 [Example 85, (1R,2R)-2-{2-[5-(cyclobutyloxy)-2,3-difluorophenyl]-1,2,3,4-tetra-hydroisoquinolin-6-yl}cyclo-propane-carboxylic acid]
28 | 34 nM | Cc1nc(N2CCc3c(ccc(CCC(=O)O)c3F)C2)nc(OC2CCC2)c1C#N [Example 151, 3-{2-[5-cyano-4-(cyclobutyloxy)-6-methylpyrimidin-2-yl]-5-fluoro-1,2,3,4-tetrahydroisoquino-lin-6-yl}propanoic acid]
29 | 24 nM | COc1cc(OC2CCC2)cc(N2CCc3cc(CCC(=O)O)ccc3C2)c1F [Example 18, 3-{2-[5-(cyclobutyloxy)-2-fluoro-3-methoxyphenyl]-1,2,3,4-tetra-hydroisoquinolin-6-yl}propanoic acid]
30 | 17 nM | O=C(O)CCc1ccc2c(c1)CCN(c1cc(Oc3ccccn3)cc(C(F)F)c1F)C2 [Example 2, 3-(2-(3-(difluoromethyl)-2-fluoro-5-(pyridin-2-yloxy)phenyl)-1,2,3,4-tetrahydro-isoquinolin-6-yl)propanoic acid]
31 | 15 nM | O=C(O)CCc1ccc2c(c1F)CCN(c1cc(OC3CCC3)cc(F)c1F)C2 [Example 64, 3-{2-[5-(cyclobutyloxy)-2,3-difluorophenyl]-5-fluoro-1,2,3,4-tetra-hydroisoquinolin-6-yl}propanoic acid]
32 | 14 nM | O=C(O)CCc1ccc2c(c1F)CCN(c1nc(OC3CCC3)ccc1F)C2 [Example 63, 3-{2-[6-(cyclobutyloxy)-3-fluoro-pyridin-2-yl]-5-fluoro-1,2,3,4-tetra-hydro-isoquinolin-6-yl} propanoic acid]
